Target: T1, BK channels (Homo sapiens, UniProt Q12791)
T1 construct: expressed in transfected cells; host or cells: Xenopus laevis oocytes
Assay: BK channel opening activity, two-electrode voltage clamp in Xenopus oocytes
Type: cell-based
Conditions: BK channels heterologously expressed in Xenopus oocytes, 0.01-31.6 μM compound
Description: In this example the BK channel opening activity of Compound 8 is determined using BK channels heterologously expressed in Xenopus iaevis oocytes.
The electrical current through the BK channel was measured using conventional two-electrode voltage clamp. BK currents were activated by repeating ramp protocols. In brief, the membrane potential was continuously changed from −120 mV to +120 mV within a 2 s period. The threshold for BK activation is approximately +30 mV under control conditions. Compounds were applied for 100 s during which the ramp protocol was repeated 10 times with 10 s intervals. In between the ramp protocols the membrane potential was clamped at −80 mV. The first three compound applications were control blanks where the current level is allowed to stabilize. […]
In order to evaluate the ability of the compounds to shift the BK activation curve towards lower membrane potentials, the BK current was transformed into conductance by using Ohm's law g=I/(Ememb−Erev), where g is the conductance, I is the current, Ememb is the membrane potential and Erev is the reversal potential. […] The control conductance level at a membrane potential of +100 mV was calculated, and the compound effect was evaluated as the potential difference, […], to the membrane potential at which the same conductance level was obtained in the presence of compound. […]

T1 sequence (Q12791 whole entry): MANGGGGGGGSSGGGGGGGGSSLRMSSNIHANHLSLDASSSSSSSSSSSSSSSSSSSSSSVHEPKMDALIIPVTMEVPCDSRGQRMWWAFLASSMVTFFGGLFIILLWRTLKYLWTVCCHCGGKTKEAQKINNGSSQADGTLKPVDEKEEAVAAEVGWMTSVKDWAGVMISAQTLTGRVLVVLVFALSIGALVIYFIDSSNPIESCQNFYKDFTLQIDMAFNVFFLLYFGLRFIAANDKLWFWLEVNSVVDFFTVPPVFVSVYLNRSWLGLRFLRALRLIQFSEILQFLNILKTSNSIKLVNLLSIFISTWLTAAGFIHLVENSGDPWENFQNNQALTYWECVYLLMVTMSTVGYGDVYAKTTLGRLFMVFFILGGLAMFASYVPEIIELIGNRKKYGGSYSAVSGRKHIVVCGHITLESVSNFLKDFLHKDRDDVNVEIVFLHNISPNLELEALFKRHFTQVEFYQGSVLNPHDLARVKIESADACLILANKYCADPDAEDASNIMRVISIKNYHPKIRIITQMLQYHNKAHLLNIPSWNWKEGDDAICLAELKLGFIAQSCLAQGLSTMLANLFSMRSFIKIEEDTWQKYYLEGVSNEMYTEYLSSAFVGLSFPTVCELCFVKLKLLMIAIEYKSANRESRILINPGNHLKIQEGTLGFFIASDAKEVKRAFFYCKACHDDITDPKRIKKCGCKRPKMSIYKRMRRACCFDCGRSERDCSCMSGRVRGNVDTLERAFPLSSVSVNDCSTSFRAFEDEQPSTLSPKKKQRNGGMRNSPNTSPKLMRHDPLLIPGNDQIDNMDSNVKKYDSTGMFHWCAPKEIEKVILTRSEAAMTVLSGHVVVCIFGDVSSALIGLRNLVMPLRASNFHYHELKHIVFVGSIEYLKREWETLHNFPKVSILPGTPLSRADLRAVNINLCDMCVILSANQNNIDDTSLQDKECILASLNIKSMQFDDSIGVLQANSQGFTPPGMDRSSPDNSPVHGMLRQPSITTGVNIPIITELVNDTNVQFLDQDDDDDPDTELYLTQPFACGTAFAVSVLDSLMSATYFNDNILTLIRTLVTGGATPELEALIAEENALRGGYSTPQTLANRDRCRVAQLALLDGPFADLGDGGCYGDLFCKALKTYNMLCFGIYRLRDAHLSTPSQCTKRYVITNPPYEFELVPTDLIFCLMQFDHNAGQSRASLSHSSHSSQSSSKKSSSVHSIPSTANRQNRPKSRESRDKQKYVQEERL

maximal left-shift for the BK-activation curve (ΔVmax) (fitted to sigmoidal logistic equation): -94 mV
EC50 (ramp -120 to +120 mV, ΔV at control conductance level of +100 mV, read-out: EC50 for the left-shift of the BKca-activation curve): 8.2 µM
Structure (SMILES): O=C(COc1cccc(Cl)c1)Nc1cc(Cl)ccc1-c1noc(=O)[nH]1 [Compound 8]

— patent US20100292283A1, “NOVEL PHENYL-ACETAMIDE AND PHENYL-PROPIONAMIDE DERIVATIVES USEFUL AS POTASSIUM CHANNEL MODULATORS” (priority 2007, published 2010)
